Assay results as given in publication doi:10.1101/2024.05.07.592940v1 (biorxiv, 2024).
Residue numbers refer to the chain shown, from its start.

What was measured:
PTPN2 [1] = biological target: T1, PTPN2 (Homo sapiens, UniProt P17706, C216G); assay: microscale thermophoresis; format: binding
T1 sequence (P17706 1-314 C216G): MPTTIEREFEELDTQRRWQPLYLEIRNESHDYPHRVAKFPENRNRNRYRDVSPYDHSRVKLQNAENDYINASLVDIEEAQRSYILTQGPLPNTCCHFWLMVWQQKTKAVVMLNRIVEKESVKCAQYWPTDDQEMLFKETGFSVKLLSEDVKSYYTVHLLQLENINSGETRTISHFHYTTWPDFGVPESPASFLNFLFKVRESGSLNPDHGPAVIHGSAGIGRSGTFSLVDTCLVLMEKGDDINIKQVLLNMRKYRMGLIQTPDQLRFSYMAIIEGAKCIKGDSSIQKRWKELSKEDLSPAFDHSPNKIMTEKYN

PTP1B = biological target: T2, PTP1B (Homo sapiens, UniProt P18031); assay: pNPP hydrolysis, absorbance […] nm; format: biochemical
T2 sequence (P18031 1-321): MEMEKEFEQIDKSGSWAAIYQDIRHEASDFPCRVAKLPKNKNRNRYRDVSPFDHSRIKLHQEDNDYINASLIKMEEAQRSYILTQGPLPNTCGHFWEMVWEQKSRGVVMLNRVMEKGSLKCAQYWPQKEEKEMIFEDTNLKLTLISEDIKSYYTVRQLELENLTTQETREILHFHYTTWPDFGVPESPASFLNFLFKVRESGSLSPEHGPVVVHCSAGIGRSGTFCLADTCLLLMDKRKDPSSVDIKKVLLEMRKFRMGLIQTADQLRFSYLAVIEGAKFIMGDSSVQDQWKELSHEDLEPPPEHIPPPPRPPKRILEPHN

PTPN2 [2] = biological target: T3, PTPN2 (Homo sapiens, UniProt P17706); assay: pNPP hydrolysis, absorbance […] nm; format: biochemical
T3 sequence (P17706 1-314): T1 sequence (P17706 1-314 C216G) with G216C

PTPN2 [3] = biological target: T3, PTPN2; assay: microscale thermophoresis; format: binding

Kd (PTPN2 [1]) | IC50 (PTP1B) | IC50 (PTPN2 [2]) | Kd (PTPN2 [3]) | SMILES
31.6 µM | 4.27 µM | 0.324 µM | 0.646 µM | O=c1sn(CCOc2ccc([N+](=O)[O-])cc2)c(=O)n1Cc1ccccc1 [K73]
– | 4.66 µM | 3.23 µM | – | O=c1sn(-c2cccc3ccccc23)c(=O)n1Cc1ccccc1 [NP-12]
